Holding throughout (assay type): functional
Test [1] concerns AGS. The experiment in a line: Induction of apoptosis in TRAIL-resistant human AGS cells assessed as decrease in cell viability at 40 uM after 24 hrs by fluorometric microculture cytotoxic assay in presence of TRAIL relative to in absence of TRAIL.
In test [2] the test system is AGS. Description: Induction of apoptosis in TRAIL-resistant human AGS cells assessed as decrease in cell viability at 30 uM after 24 hrs by fluorometric microculture cytotoxic assay in presence of TRAIL relative to in absence of TRAIL.
Test [3] has as its system AGS. Description: Induction of apoptosis in TRAIL-resistant human AGS cells assessed as decrease in cell viability at 20 uM after 24 hrs by fluorometric microculture cytotoxic assay in presence of TRAIL relative to in absence of TRAIL.

The source of these data is ChEMBL document CHEMBL1649359, “Izumiphenazines A-C: isolation and structure elucidation of phenazine derivatives from Streptomyces sp. IFM 11204” (2010).

On to `O=C(O)c1cc2c(c3nc4c(O)cccc4nc13)[C@@H]1Cc3nc4cccc(O)c4nc3[C@@H](O)[C@@H]1O2` [IZUMIPHENAZINE A], for which, in the test with AGS [1], the Activity amounted to 78%.

`O=C1C[C@H](c2c(O)cc(C(=O)O)c3nc4cccc(O)c4nc23)Cc2nc3cccc(O)c3nc21` [IZUMIPHENAZINE B]: the Activity in the test on AGS [2] was determined as 30%.

As for `CN(c1ccc(C(=O)O)cc1)c1cccc2nc3c(O)cccc3nc12` [IZUMIPHENAZINE C], the Activity with AGS [3] came out at 26%.
